Laboratory results reported in patent publication US20040242579A1, “Triazine derivatives and their use as sunscreens” (priority 2001, published 2004).

Experiment: UV absorption (λmax, molar extinction ε, extinction value E 1%, 1 cm) of the triazine UV filters
Assay type: physicochemical
[1] = at λmax 320 nm, solvent not stated
[2] = second band at 224 nm, solvent not stated

| SMILES | E (1%, 1 cm) (at λmax, in ethanol) | ε (at λmax, in ethanol) | λmax (in ethanol) | E (1%, 1 cm) (at λmax, in dioxane) | ε (at λmax, in dioxane) | λmax (in dioxane) | further results |
| --- | --- | --- | --- | --- | --- | --- | --- |
| CC1(C)CC(=O)C(=CNc2nc(NC=C3C(=O)CC(C)(C)CC3=O)nc(-c3ccccc3)n2)C(=O)C1 [Example 1] | – | – | – | – | – | – | E (=extinction value) (1%, 1 cm) [1]: 1045; ε [1]: 51000 L/mol/cm; λmax (main band, solvent not stated): 320 nm; E (1%, 1 cm) [2]: 732; ε [2]: 35700 L/mol/cm; γmax (second band, solvent not stated): 224 nm |
| CC1(C)OC(=O)C(=CNc2nc(NC=C3C(=O)OC(C)(C)OC3=O)nc(-c3ccccc3)n2)C(=O)O1 [Example 3] | – | – | – | 1374 | 68000 L/mol/cm | 332 nm | – |
| CC1(C)OC(=O)C(=CNc2nc(NC=C3C(=O)OC(C)(C)OC3=O)nc(NC=C3C(=O)OC(C)(C)OC3=O)n2)C(=O)O1 [Example 6] | – | – | – | 1053 | 61 956 | 326 nm | – |
| CCOC(=O)/C(=C\Nc1nc(N/C=C(\C(C)=O)C(=O)OCC)nc(N/C=C(\C(C)=O)C(=O)OCC)n1)C(C)=O [Example 5] | – | – | – | 1350 | – | 325 nm | – |

Further lines, with some results ahead:

| E (1%, 1 cm) (at λmax, in ethanol) | ε (at λmax, in ethanol) | λmax (in ethanol) | E (1%, 1 cm) (at λmax, in dioxane) | ε (at λmax, in dioxane) | λmax (in dioxane) | SMILES | further results |
| --- | --- | --- | --- | --- | --- | --- | --- |
| 1053 | 42900 L/mol/cm | 322 nm | – | – | – | CC(=O)C(=CNc1nc(NC=C(C(C)=O)C(C)=O)nc(-c2ccccc2)n1)C(C)=O [Example 2] | – |
| 983 | 46000 L/mol/cm | 319 nm | – | – | – | CCOC(=O)/C(=C\Nc1nc(N/C=C(\C(C)=O)C(=O)OCC)nc(-c2ccccc2)n1)C(C)=O [Example 4] | – |
